From BindingDB's records for patent US10851102 (Theravance Biopharma R&D Ip, 2020) come the findings set out here.

Assay [1] addresses Non-receptor tyrosine-protein kinase TYK2 (Homo sapiens, UniProt P29597).
For assay [2], the target named is Tyrosine-protein kinase JAK2 (Homo sapiens, UniProt O60674).
Assay [3] has as its target T1, Tyrosine-protein kinase JAK3 (Homo sapiens, UniProt P52333).
T1 sequence (P52333 whole entry): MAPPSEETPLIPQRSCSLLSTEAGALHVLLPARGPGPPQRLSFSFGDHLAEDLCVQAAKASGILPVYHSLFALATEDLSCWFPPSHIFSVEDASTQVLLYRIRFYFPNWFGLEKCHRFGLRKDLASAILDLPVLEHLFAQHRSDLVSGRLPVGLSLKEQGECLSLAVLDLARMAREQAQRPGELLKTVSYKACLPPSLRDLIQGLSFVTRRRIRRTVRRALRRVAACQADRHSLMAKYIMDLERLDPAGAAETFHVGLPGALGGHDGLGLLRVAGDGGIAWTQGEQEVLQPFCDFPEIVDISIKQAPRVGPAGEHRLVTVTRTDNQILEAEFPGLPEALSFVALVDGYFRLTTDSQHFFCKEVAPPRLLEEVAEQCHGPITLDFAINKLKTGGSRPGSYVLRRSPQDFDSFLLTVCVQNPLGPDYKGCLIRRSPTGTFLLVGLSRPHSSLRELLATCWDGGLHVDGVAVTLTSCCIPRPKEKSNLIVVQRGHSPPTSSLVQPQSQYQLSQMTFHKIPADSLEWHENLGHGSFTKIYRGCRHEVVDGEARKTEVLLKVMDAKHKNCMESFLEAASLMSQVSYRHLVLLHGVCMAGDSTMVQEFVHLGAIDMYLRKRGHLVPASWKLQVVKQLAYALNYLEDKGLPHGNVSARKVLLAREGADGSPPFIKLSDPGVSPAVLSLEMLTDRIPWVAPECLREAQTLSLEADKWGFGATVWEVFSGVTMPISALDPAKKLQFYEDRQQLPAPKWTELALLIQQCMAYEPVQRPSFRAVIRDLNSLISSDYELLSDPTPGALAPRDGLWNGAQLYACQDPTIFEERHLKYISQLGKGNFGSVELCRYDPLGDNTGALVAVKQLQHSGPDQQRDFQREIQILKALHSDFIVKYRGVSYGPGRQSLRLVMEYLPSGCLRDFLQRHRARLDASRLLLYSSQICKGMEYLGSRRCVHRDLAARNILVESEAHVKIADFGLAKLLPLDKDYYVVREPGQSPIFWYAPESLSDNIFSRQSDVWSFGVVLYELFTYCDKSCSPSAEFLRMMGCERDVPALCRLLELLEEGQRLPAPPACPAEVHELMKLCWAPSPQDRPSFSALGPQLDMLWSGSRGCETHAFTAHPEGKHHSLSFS

Sequence of Non-receptor tyrosine-protein kinase TYK2 (P29597 whole entry): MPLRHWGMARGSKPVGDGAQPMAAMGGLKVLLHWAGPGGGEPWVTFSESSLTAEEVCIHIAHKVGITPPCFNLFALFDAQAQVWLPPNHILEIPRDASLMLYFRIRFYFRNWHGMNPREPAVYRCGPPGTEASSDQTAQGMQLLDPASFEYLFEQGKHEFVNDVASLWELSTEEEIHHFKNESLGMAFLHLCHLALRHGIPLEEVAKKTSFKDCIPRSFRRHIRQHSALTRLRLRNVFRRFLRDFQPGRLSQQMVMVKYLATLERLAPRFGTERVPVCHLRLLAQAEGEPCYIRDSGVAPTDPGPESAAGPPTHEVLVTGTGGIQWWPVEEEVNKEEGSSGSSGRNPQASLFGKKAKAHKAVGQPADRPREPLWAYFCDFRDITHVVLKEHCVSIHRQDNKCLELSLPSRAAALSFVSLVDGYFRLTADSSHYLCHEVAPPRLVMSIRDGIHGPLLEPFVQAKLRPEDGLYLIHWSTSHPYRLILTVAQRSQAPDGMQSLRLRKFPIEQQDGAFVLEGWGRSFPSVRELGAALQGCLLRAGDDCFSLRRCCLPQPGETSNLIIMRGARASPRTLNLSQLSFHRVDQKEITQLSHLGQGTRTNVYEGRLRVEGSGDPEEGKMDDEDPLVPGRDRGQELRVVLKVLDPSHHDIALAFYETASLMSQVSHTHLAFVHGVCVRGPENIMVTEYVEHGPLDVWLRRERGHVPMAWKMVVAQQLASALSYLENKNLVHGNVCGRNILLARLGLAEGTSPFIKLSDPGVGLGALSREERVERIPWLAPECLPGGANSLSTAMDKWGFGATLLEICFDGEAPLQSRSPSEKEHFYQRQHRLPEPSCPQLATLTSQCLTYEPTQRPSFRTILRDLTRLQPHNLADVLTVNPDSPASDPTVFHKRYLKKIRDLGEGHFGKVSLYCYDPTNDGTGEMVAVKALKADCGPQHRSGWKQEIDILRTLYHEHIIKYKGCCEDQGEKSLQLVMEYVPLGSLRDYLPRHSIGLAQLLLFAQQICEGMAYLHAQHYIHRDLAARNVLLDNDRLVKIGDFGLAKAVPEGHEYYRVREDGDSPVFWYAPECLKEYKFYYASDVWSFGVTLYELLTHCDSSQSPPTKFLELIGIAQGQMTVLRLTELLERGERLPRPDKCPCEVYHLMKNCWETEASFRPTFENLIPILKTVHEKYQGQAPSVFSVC
Sequence of Tyrosine-protein kinase JAK2 (O60674 whole entry): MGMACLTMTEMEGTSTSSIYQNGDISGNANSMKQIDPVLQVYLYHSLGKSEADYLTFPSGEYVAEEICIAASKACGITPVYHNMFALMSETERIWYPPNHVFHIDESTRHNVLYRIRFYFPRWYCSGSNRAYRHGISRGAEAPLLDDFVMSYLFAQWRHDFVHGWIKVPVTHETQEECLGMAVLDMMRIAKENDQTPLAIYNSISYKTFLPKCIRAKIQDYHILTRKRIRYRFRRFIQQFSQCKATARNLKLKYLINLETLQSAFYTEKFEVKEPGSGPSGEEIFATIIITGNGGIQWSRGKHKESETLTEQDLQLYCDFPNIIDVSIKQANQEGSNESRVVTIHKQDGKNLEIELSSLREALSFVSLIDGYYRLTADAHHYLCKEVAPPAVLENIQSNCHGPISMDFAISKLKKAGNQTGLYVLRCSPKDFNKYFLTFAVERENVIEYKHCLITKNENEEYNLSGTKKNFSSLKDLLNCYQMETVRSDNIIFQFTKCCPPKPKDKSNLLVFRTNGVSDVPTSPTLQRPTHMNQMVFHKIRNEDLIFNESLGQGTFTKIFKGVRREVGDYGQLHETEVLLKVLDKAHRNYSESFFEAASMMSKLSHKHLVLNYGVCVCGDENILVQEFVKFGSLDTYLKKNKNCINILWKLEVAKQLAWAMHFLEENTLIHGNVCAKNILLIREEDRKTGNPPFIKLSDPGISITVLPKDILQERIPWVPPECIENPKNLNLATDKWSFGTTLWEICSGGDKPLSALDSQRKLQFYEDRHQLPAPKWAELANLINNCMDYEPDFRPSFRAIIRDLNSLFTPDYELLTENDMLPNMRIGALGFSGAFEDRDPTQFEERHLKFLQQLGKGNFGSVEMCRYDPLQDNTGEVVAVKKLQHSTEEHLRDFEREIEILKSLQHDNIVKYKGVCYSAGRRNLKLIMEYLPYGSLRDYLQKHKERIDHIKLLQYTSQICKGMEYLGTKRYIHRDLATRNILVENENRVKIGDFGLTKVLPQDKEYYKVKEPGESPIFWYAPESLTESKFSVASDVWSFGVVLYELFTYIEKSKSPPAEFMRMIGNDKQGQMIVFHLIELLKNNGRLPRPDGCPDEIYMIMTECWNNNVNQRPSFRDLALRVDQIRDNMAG

By Ki is commonly meant the dissociation constant of the complex between target and ligand, obtained from inhibition or displacement. As for `C=CC(=O)N1[C@@H]2CC[C@H]1C[C@H](Oc1cc(-c3ccc(O)cc3)cn3cncc13)C2` [US10851102, Example 10], the inhibition constant Ki in assay [1] is > 100 nM; in assay [2], > 100 nM; in assay [3] it was < 0.1 nM.
